Measurements taken from article PMC12302228 (RSC Medicinal Chemistry, 2025).
Values after ≈ are worked out from the molar mass of the structure shown. Read-outs that look alike come from different tables or passages of the source.

Tests used:
MOLM-13 = experiment: Antiproliferative activity, MTT assay; type: cell-based, human; conditions: read-out: IC50 MOLM-13; 48 h of treatment; mean ± SEM
HT-1080 = experiment: Antiproliferative activity, SRB assay; type: cell-based, human; conditions: read-out: IC50 HT-1080; 48 h of treatment; mean ± SEM
THP-1 = experiment: Antiproliferative activity, MTT assay; type: cell-based, human; conditions: mean ± SEM
M21 = experiment: Antiproliferative activity, SRB assay; type: cell-based, human; conditions: mean ± SEM
MCF7 = experiment: Antiproliferative activity, SRB assay; type: cell-based, human; conditions: mean ± SEM
HT-29 = experiment: Antiproliferative activity, SRB assay; type: cell-based, human; conditions: mean ± SEM
physchem = conditions: ultrapure water, 37 °C, kinetic from dmso stock
HL-60 = experiment: Antiproliferative activity, MTT assay; type: cell-based, human; conditions: mean ± SEM
[1] = read-out: IC50 THP-1, 48 h of treatment
[2] = read-out: IC50 M21, 48 h of treatment
[3] = read-out: IC50 MCF7, 48 h of treatment
[4] = read-out: IC50 HT-29, 48 h of treatment
[5] = read-out: IC50 HL-60, 48 h of treatment
[6] = Homo sapiens, M21, 48 h, read-out: IC50 M21, 48 h of treatment
[7] = Homo sapiens, MCF7, 48 h, read-out: IC50 MCF7, 48 h of treatment
[8] = Homo sapiens, HT-29, 48 h, read-out: IC50 HT-29, 48 h of treatment
[9] = Homo sapiens, THP-1, 48 h, read-out: IC50 THP-1, 48 h of treatment
[10] = Homo sapiens, HL-60, 48 h, read-out: IC50 HL-60, 48 h of treatment

Compound	IC50 (MOLM-13)	IC50 (HT-1080)	IC50 (THP-1; [1])	IC50 (M21; [2])	IC50 (MCF7; [3])	IC50 (HT-29; [4])	solubility at 24 h (physchem)	IC50 (HL-60; [5])	IC50 (M21; [6])	IC50 (MCF7; [7])	IC50 (HT-29; [8])	IC50 (THP-1; [9])	IC50 (HL-60; [10])
CCCNC(=O)Nc1ccc(S(=O)(=O)Oc2cccnc2C)cc1.Cl [Compound 26, 2-Methylpyridin-3-yl 4-(3-propylureido)benzenesulfonate hydrochloride]	14 ± 2 µM	15 ± 2 µM	6 ± 2 µM	> 100 µM	33 ± 4 µM	> 100 µM	151 ± 1 µg/mL	15 ± 3 µM	–	–	–	–	–
O=C(NCCCl)Nc1ccc(S(=O)(=O)Oc2cccnc2Br)cc1 [Compound 9, 2-Bromopyridin-3-yl 4-(3-(2-chloroethyl)ureido)benzenesulfonate]	–	–	1.2 ± 0.5 µM	–	–	–	56 ± 2 µg/mL (≈ 129 µM)	12 ± 1 µM	23 ± 1 µM	16 ± 1 µM	17 ± 1 µM	–	–
CCCNC(=O)Nc1ccc(S(=O)(=O)Oc2cccnc2Br)cc1.Cl [Compound 23, 2-Bromopyridin-3-yl 4-(3-propylureido)benzenesulfonate hydrochloride]	–	–	–	–	–	42 ± 2 µM	79 ± 9 µg/mL	–	45 ± 2 µM	22 ± 2 µM	–	10 ± 0.3 µM	37 ± 7 µM
CC(C)c1ncccc1OS(=O)(=O)c1ccc(NC(=O)NCCCl)cc1.Cl [Compound 29, 2-Isopropylpyridin-3-yl 4-(3-(2-chloroethyl)ureido)benzenesulfonate hydrochloride]	2.5 ± 0.9 µM	3.3 ± 0.2 µM	2.6 ± 0.9 µM	9.7 ± 0.5 µM	14 ± 1 µM	10.5 ± 0.5 µM	126 ± 5 µg/mL	13 ± 4 µM	–	–	–	–	–
CCNC(=O)Nc1ccc(S(=O)(=O)Oc2cnccc2Br)cc1 [Compound 12, 4-Bromopyridin-3-yl 4-(3-ethylureido)benzenesulfonate]	–	–	–	21 ± 1 µM	–	–	64 ± 1 µg/mL (≈ 160 µM)	–	–	32 ± 4 µM	25 ± 1 µM	4 ± 0.6 µM	> 50 µM
CCCNC(=O)Nc1ccc(S(=O)(=O)Oc2cnccc2I)cc1 [Compound 16, 4-Iodopyridin-3-yl 4-(3-propylureido)benzenesulfonate]	1.3 ± 0.3 µM	–	–	9.7 ± 0.9 µM	5 ± 1 µM	6.9 ± 0.5 µM	53 ± 6 µg/mL (≈ 115 µM)	18 ± 4 µM	–	–	–	1.5 ± 0.4 µM	–
CCCNC(=O)Nc1ccc(S(=O)(=O)Oc2cnccc2I)cc1.Cl [Compound 34, 4-Iodopyridin-3-yl 4-(3-propylureido)benzenesulfonate hydrochloride]	2.7 ± 0.5 µM	5.9 ± 0.5 µM	2.1 ± 0.6 µM	21 ± 2 µM	13 ± 1 µM	14 ± 1 µM	130 ± 10 µg/mL	> 50 µM	–	–	–	–	–
CCCNC(=O)Nc1ccc(S(=O)(=O)Oc2cnccc2Br)cc1 [Compound 15, 4-Bromopyridin-3-yl 4-(3-propylureido)benzenesulfonate]	–	4.1 ± 0.3 µM	–	–	–	–	35 ± 3 µg/mL (≈ 84.5 µM)	–	28 ± 2 µM	12 ± 1 µM	19 ± 1 µM	6 ± 1 µM	21 ± 5 µM
CCCNC(=O)Nc1ccc(S(=O)(=O)Oc2cccnc2I)cc1.Cl [Compound 24, 2-Iodopyridin-3-yl 4-(3-propylureido)benzenesulfonate hydrochloride]	–	–	–	–	–	–	120 ± 10 µg/mL	–	29 ± 2 µM	22 ± 2 µM	28 ± 2 µM	3.9 ± 0.7 µM	30 ± 10 µM
CCNC(=O)Nc1ccc(S(=O)(=O)Oc2cnccc2C)cc1 [Compound 14, 4-Methylpyridin-3-yl 4-(3-ethylureido)benzenesulfonate]	–	–	6 ± 2 µM	–	–	–	49 ± 4 µg/mL (≈ 146 µM)	–	31 ± 3 µM	31 ± 3 µM	16 ± 1 µM	–	> 100 µM
CC(C)c1ncccc1OS(=O)(=O)c1ccc(NC(=O)NCCCl)cc1 [Compound 11, 2-Isopropylpyridin-3-yl 4-(3-(2-chloroethyl)ureido)benzenesulfonate]	–	–	–	20 ± 1 µM	–	–	41 ± 3 µg/mL (≈ 103 µM)	27 ± 6 µM	–	17 ± 1 µM	14 ± 1 µM	2.3 ± 0.9 µM	–
O=C(NCCCl)Nc1ccc(S(=O)(=O)Oc2cnccc2I)cc1 [Compound 18, 4-Iodopyridin-3-yl 4-(3-(2-chloroethyl)ureido)benzenesulfonate]	–	–	–	–	–	–	24 ± 2 µg/mL (≈ 49.8 µM)	–	2.8 ± 0.3 µM	2.8 ± 0.4 µM	2.7 ± 0.2 µM	1.2 ± 0.3 µM	3 ± 1 µM
CCCNC(=O)Nc1ccc(S(=O)(=O)Oc2cnccc2C)cc1 [Compound 17, 4-Methylpyridin-3-yl 4-(3-propylureido)benzenesulfonate]	4 ± 0.6 µM	7.5 ± 0.5 µM	–	24 ± 1 µM	12 ± 1 µM	12 ± 1 µM	52 ± 2 µg/mL (≈ 149 µM)	43 ± 7 µM	–	–	–	7.3 ± 0.8 µM	–
CCNC(=O)Nc1ccc(S(=O)(=O)Oc2cccnc2Br)cc1 [Compound 1, 2-Bromopyridin-3-yl 4-(3-ethylureido)benzenesulfonate]	1.1 ± 0.2 µM	2.1 ± 0.3 µM	7 ± 1 µM	12 ± 1 µM	31 ± 3 µM	9.7 ± 0.7 µM	64 ± 1 µg/mL (≈ 160 µM)	40 ± 10 µM	–	–	–	–	–
CCNC(=O)Nc1ccc(S(=O)(=O)Oc2cnccc2I)cc1 [Compound 13, 4-Iodopyridin-3-yl 4-(3-ethylureido)benzenesulfonate]	–	–	–	–	–	–	63 ± 1 µg/mL (≈ 141 µM)	–	9 ± 1 µM	15 ± 2 µM	12 ± 1 µM	1.8 ± 0.5 µM	25 ± 7 µM
O=C(NCCCl)Nc1ccc(S(=O)(=O)Oc2cccnc2I)cc1 [Compound 10, 2-Iodopyridin-3-yl 4-(3-(2-chloroethyl)ureido)benzenesulfonate]	–	–	–	–	5 ± 1 µM	9 ± 1 µM	4.4 ± 0.1 µg/mL (≈ 9.13 µM)	6.9 ± 0.3 µM	9 ± 1 µM	–	–	1 ± 0.1 µM	–
CCNC(=O)Nc1ccc(S(=O)(=O)Oc2cccnc2Br)cc1.Cl [Compound 19, 2-Bromopyridin-3-yl 4-(3-ethylureido)benzenesulfonate hydrochloride]	–	–	–	27 ± 2 µM	–	26 ± 2 µM	173 ± 2 µg/mL	> 100 µM	–	28 ± 2 µM	–	7 ± 3 µM	–
CCNC(=O)Nc1ccc(S(=O)(=O)Oc2cccnc2C)cc1.Cl [Compound 22, 2-Methylpyridin-3-yl 4-(3-ethylureido)benzenesulfonate hydrochloride]	–	26 ± 2 µM	–	–	51 ± 5 µM	–	152 ± 4 µg/mL	–	> 100 µM	–	> 100 µM	5 ± 2 µM	60 ± 20 µM
CCCNC(=O)Nc1ccc(S(=O)(=O)Oc2cccnc2C(C)C)cc1 [Compound 7, 2-Isopropylpyridin-3-yl 4-(3-propylureido)benzenesulfonate]	–	–	–	–	–	–	7 ± 1 µg/mL (≈ 18.5 µM)	24 ± 4 µM	22 ± 2 µM	17 ± 1 µM	14 ± 1 µM	2.6 ± 0.6 µM	–
CCCNC(=O)Nc1ccc(S(=O)(=O)Oc2cccnc2C)cc1 [Compound 8, 2-Methylpyridin-3-yl 4-(3-propylureido)benzenesulfonate]	–	5.1 ± 0.5 µM	–	–	–	–	44 ± 1 µg/mL (≈ 126 µM)	35 ± 7 µM	69 ± 3 µM	19 ± 2 µM	70 ± 8 µM	3.5 ± 0.9 µM	–
